The target of this assay is T1, LmrCD (Lactococcus cremoris, UniProt A2RI37+A2RI38).
T1 construct: gene lmrC
Nature of the assay: malachite green ATPase assay. Type of assay: biochemical. Conditions: 2 mM Mg-ATP; 0.05% DDM.

T1 sequence (A2RI38 entry or part of it): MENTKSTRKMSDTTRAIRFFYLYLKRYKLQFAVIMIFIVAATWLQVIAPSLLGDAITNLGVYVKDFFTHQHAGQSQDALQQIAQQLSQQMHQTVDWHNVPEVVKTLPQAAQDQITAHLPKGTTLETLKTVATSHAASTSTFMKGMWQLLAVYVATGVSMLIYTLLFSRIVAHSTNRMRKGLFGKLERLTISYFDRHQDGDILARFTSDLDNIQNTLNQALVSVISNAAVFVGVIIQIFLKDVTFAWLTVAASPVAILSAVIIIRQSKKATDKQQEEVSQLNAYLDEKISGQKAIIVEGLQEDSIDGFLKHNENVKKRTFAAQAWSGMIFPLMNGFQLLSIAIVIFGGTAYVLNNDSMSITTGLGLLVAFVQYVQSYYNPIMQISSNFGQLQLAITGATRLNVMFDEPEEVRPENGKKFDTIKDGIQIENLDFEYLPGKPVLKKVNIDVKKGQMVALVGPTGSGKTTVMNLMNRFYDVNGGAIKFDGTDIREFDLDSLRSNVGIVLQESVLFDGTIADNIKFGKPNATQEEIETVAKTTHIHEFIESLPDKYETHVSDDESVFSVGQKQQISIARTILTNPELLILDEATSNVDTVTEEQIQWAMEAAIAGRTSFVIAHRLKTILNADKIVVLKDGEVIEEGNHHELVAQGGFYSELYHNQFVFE
T1 sequence (A2RI37 entry or part of it): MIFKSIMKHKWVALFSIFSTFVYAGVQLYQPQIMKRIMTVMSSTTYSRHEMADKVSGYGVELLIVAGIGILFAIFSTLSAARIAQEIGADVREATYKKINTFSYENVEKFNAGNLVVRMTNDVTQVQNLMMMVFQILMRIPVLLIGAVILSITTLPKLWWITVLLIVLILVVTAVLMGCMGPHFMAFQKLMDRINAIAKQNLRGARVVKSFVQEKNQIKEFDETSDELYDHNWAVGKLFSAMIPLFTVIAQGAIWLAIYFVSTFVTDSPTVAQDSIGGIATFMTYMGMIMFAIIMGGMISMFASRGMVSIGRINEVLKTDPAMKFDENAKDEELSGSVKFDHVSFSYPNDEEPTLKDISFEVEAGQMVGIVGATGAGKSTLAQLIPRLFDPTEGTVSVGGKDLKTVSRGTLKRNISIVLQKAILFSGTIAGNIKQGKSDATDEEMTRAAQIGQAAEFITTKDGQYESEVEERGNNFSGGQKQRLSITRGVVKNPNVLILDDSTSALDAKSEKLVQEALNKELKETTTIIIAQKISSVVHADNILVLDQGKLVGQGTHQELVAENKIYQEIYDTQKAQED

Consider `Nc1ncnc2c1ncn2[C@@H]1O[C@H](COP(=O)(O)OP(=O)(O)OP(=O)(O)O)[C@@H](O)[C@H]1O` [ATP], for which the “malachite green ATPase assay” value is “the ATPase activity of the purified multidrug ABC transporter LmrCD from L. lactis”.

The values above are taken from PMC2704374, “A Multidrug ABC Transporter with a Taste for Salt” (PLoS ONE, 2009).
